Experimental findings from paper PMC5730604 are described below.

Positions of bridges follow the written chain, without caps; N, C: chain ends. Non-standard residues stand in square brackets, D forms with d. Residues, ends and D or L forms follow the SMILES beside them. Chains are numbered I, II in the order given. *: point of attachment. PEG28 = NCCOCCOCCOCCOCCOCCOCCOCCOCCOCCOCCOCCOCCOCCOCCOCCOCCOCCOCCOCCOCCOCCOCCOCCOCCOCCOCCOCCOCCC(=O)O; Tyr(3-NO2) = N[C@@H](Cc1ccc(O)c([N+](=O)[O-])c1)C(=O)O; Hyp = O=C(O)[C@@H]1C[C@@H](O)CN1; For = O=C*

For data set [1], the target named is immobilized integrin α3β1 (VLA-3) (Homo sapiens, UniProt P26006). Put plainly: biochemical. The protocol:
Single cycle kinetic experiments were conducted on a Biacore 3000 system using a CM5 sensor chip at 25 and 37 °C with a flow rate of 10 µl/min. After coupling of the VLA-3 receptor (R&D Systems) via standard EDC/NHS immobilization chemistry (7 min activation with EDC/NHS followed by a 7 min flush with VLA-3) in 10 mM NaOAc buffer at pH 6 containing 1 mM MnCl2, a […] solution of ethanolamine was injected for 7 min to block all amine reactive sites. Subsequently the analyte was flushed over the chip surface at a flow rate of 10 µl/min in HEPES buffered saline supplemented with 1 mM MnCl2.

A further data set addresses HT-29 cells (Homo sapiens, UniProt P26006). The data set is described as follows: Competition with 200 nM B9-Biotin (flow cytometry). It counts as binding.
A further data set deals with guinea pig skin. The data set is described as follows: Local skin inflammation model, immune cell infiltration. The note with it: s.c. 100 nmol. It counts as in vivo. The protocol: (§1) Animals: Eighth Edition. W ashington, DC: The National Academies Press, 2011) were […]
(§2) Committee (LANUV AZ. 87- 51.04.2010.A278). All experiments were performed in the Institute […]
(§3) GmbH (Sulzf eld, Germany) were used. Mice were housed in individual ventilated cages under […]
(§4) humidity and a 12h dark/light cycle.
(§5) Soest, Germany) was given ad libitum. Guinea pigs were housed in conventional open cages in the same way as describe for mice. Animals were allowed to acclimatize to their […]
(§6) additional immunohistochemical stainings with antibodies against granulocytes/monocytes

The next data set relates to mouse skin. The data set is described as above. It counts as in vivo. The note with it: immune-deficient Balb/c nu/nu mice, s.c., 200 nmol to 500 nmol, 24 h. As for the experimental part:
as §1, §2, §3, §4, §5, §6

Data set [2] deals with A431, U-87 or HT-29 cells. Put plainly: MTT assay. It counts as cell-based, Human. The note with it: 100 nM to 10 µM, 24 h or 72 h, A431, U-87, HT-29 cells, triplicates. The protocol:
were recorded at 278 K and referenced to the water signal. Spectra were assigned with CCPNMR1 using the sequential assignment protocol. Secondary Hα chemical shif ts were calculated as the difference between the measured Hα chemical shift and the respective random coil shif t.2 Random coil shifts were temperature corrected using the correction factors calculated by Kjaergaard et al.3 For the D-amino acids, the random coil shift of the respective L-amino acid was used, the random coil shif t of Tyr was used for Tyr(3-NO2) and 4.54 ppm was used f or Hyp Hα . Oxid ized Y9 (MW 5268.0) was prepared by dissolving Y9 in Na2HPO4 buff er (50 mM, pH 7.0). After HPLC purif ication, the oxidized Y9 (2.1 mg) was dissolved in 90% H2O/10% D2O (500 µL) at pH 2.9 and NMR spectra were acquired as described above. […]
Stained cells were analyzed by f low cytometr y. […]
At the end of the incubation period (24 h or 72 h at 37°C in 5% CO2) cells were 30- 80% conf luent. […] 04M HCl were added and absorbances were measured at 595 nm.
Absorbances were plotted against the agent’s concentrations. A high absorbance value […]
present in the well as compared to wells with low absorbance values.
Figure S13 : MTT assays showing no ef f ect of Y9 and sc- Y9 on the viability and prolif eration of diff erent tumor cell lines. […] To indicate background: the absorbance values of medium without cells were between 0.11 and […]

For data set [3] the following is noted: mice, local s.c. injection of 200 or 500 nmol, dot-blot, detection limit ~1 nM.
Description: according to standard procedures. From 20 ml antiserum, 1.5 mg purified antibody were
isolated and stored in aliquots at -20 °C in PBS + 0.01% thimerosal, 0.1% BSA diluted 1:1 with
glycerin (f inal concentration 227 µg/ml).
on a nitrocellulose membrane.
concentrations between 0.5 nM and 20 nM and s amples were also spotted in triplicates. After
drying, the membrane was soaked in TBST (150 mM NaCl, 50 mM Tris-HCl, pH 7.4, 0.05%
tween), blocked for 1 h at RT with 5% nonfat dry milk in TBST. The membrane was washed 3
1:2000 in TBST, washed 3 times, incubated 1 h at RT with anti-rabbit-HRP (GE Healthcare)
diluted 1:5,000 in 5% nonf at dry milk in TBST. The membrane was f inally washed 3 times in
TBST and then incubated with ECL prime substrate (GE Healthcare). Chemiluminescent
signals were recorded in an LAS-4000 mini Image reader (Fuji). Spot intensities were
quantitated using Image J software. The calibration samples were used to prepare a linear
For the statistical analysis, mean (M) and standard deviation (SD) were calculated. T he
statistical analysis was p erf ormed with the GraphPad Prism Software, Version 5.0 (Graph Pad,
values of < 0.05 were considered signif icant.
The next data set can be described thus: in vitro. The conditions noted are these: mouse, fresh mouse serum.

HT-29 cells, sequence (P26006 33-1051): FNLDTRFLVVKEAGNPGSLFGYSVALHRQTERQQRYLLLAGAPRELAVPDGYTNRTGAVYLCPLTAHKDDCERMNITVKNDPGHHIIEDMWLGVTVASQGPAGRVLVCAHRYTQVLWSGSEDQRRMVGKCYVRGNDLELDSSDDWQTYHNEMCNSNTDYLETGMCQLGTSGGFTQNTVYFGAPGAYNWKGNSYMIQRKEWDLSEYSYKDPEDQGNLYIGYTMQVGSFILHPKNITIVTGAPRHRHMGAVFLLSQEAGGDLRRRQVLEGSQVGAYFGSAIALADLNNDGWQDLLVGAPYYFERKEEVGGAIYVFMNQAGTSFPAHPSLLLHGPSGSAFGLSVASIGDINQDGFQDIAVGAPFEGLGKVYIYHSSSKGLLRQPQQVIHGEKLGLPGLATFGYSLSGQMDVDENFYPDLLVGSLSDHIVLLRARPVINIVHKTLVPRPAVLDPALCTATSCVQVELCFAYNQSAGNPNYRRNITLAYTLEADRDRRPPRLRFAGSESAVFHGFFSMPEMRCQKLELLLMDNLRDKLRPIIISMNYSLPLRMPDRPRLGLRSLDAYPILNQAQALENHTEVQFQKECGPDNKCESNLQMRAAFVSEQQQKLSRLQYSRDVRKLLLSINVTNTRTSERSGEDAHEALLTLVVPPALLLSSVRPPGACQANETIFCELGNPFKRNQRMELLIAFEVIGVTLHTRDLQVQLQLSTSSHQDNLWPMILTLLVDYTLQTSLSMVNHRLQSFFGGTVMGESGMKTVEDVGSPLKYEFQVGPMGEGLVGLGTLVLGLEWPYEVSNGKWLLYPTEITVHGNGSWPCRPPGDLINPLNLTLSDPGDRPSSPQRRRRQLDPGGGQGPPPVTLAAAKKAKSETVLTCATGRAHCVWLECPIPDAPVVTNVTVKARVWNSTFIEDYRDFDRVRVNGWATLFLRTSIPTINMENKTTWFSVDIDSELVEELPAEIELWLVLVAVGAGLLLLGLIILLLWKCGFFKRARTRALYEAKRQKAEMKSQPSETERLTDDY
HT-29 cells, sequence (P05556 21-798 partner): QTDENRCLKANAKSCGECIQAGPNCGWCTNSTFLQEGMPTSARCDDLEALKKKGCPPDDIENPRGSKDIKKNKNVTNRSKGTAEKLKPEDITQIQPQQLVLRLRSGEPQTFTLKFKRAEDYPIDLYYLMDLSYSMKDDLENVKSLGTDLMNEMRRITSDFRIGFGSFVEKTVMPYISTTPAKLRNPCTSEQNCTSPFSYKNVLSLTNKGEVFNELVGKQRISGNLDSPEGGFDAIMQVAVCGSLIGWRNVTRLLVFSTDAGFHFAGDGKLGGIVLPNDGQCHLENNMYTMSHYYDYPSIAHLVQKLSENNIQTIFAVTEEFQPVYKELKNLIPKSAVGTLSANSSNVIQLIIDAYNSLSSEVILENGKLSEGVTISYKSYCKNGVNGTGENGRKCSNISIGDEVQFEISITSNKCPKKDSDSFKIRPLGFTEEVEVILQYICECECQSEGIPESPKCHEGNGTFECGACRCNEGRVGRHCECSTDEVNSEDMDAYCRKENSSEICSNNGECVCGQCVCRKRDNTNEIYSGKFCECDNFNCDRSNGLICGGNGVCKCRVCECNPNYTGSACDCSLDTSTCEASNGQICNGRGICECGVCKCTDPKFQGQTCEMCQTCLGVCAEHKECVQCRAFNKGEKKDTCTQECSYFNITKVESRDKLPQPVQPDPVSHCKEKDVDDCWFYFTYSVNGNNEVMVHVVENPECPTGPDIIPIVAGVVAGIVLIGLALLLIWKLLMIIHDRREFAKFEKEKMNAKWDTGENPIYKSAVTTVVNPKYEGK
Description for in vitro: vor t exing the sample was incubated f or 48 h. At specif ic time points, the solution was again
vortexed, a sample (95 µl) was withdra wn and subjected to ultraf iltration (Vivaspin 500, 10 k Da
cutoff; 15 min, 16,000 g). The f iltrate was put on ice while the f ilter remainder was mixed with
an equal volume of ethanol (95%), vortexed and centrifuged (5 min, 16.000 g). W ith the
resulting supernatant, this procedure was repeated. The f inal supernatant was mixed with an
equal volume of f iltrate, shock frozen in liq uid nitr og en and stored at - 80 °C until analysis. RP -
HPLC analysis was performed using an analytical C4- RP column with a gradient of 5-65%
absorption at 214 and 375 nm (specif ic absorption maximum of the nitro-tyrosine building block
The absorption peak observed at the

A word on the Kd: it is the equilibrium constant for the complex coming apart. Turning to `CC[C@H](C)[C@H](NC(=O)[C@H](CCSC)NC=O)C(=O)N[C@@H](Cc1ccccc1)C(=O)N[C@@H](CC(C)C)C(=O)NCC(=O)NCC(=O)N[C@@H](CCCCNC(=O)CCOCCOCCOCCOCCOCCOCCOCCOCCOCCOCCOCCOCCOCCOCCOCCOCCOCCOCCOCCOCCOCCOCCOCCOCCOCCOCCOCCOCCNC(=O)[C@H]1CSSC[C@@H](N)C(=O)N[C@H](CC(=O)O)C(=O)NCC(=O)N[C@@H](Cc2ccc(O)c([N+](=O)[O-])c2)C(=O)NCC(=O)N2C[C@H](O)C[C@H]2C(=O)N[C@@H](CC(N)=O)C(=O)N1)C(=O)N[C@@H](CCCCNC(=O)CCOCCOCCOCCOCCOCCOCCOCCOCCOCCOCCOCCOCCOCCOCCOCCOCCOCCOCCOCCOCCOCCOCCOCCOCCOCCOCCOCCOCCNC(=O)[C@H]1CSSC[C@@H](N)C(=O)N[C@H](CC(=O)O)C(=O)NCC(=O)N[C@@H](Cc2ccc(O)c([N+](=O)[O-])c2)C(=O)NCC(=O)N2C[C@H](O)C[C@H]2C(=O)N[C@@H](CC(N)=O)C(=O)N1)C(=O)O` [Y9] (I: H-[dC][dD]G[Tyr(3-NO2)]G[Hyp]N[dC][PEG28] / II: H-[dC][dD]G[Tyr(3-NO2)]G[Hyp]N[dC][PEG28] / III: For-MIFLGGKK-OH; disulfide I:1-I:8, II:1-II:8; amide I:C-III:7, II:C-III:8), the affinity in data set [1], expressed as Kd, was 60 nM. In addition, the “concentration to displace B9-Biotin relative to the monovalent binder” value at HT-29 cells is on record as “four-fold lower”. Also, in the data set with guinea pig skin (guinea pigs immune suppressed by four weekly injections of cyclophosphamide), the immune infiltrate result is “less intense”. Also, in the data set with guinea pig skin (guinea pigs, 24 h), the “immune cell infiltration into the injection site” value is recorded as “most pronounced”. Also, the immune infiltrates entry with mouse skin is on record as “dose-dependent increases in immune infiltrates”. Moreover, in data set [2], the “effect on viability and proliferation (MTT)” value is recorded as “No effect”. In data set [3], the “detection of binder peptide in serum after 24 h” value was “still detected”. Moreover, the metabolised at 48 h, 60 µM in “in vitro” worked out at 20%.
